Measured values: BindingDB's records for doi:10.1021/jm030030n (Virginia Commonwealth University, 2003)

Experiments:
[1] = Binding affinity for rodent 5-hydroxytryptamine 5A receptor
[2] = Binding affinity of compound towards rodent 5-hydroxytryptamine 7 receptor

CCN(CC)C(=O)[C@@H]1C=C2c3cccc4[nH]c(I)c(c34)C[C@H]2N(C)C1
Ki [1]: < 0.01 µM

CCCCC(=O)c1ccc(F)cc1 [1-(4-Fluoro-phenyl)-pentan-1-one]
Ki [2]: 0.14 µM

Oc1ccc2cccc(N3CCNCC3)c2c1 [8-Piperazin-1-yl-naphthalen-2-ol]
Ki [1]: 0.003 µM

CCN(CC)C(=O)[C@@H]1C=C2c3cccc4[nH]c(Br)c(c34)C[C@H]2N(C)C1 [LSD,2-Bromo]
Ki [1]: < 0.01 µM
